Laboratory results published in patent publication US9073856B2, “Phenyl methanesulfonamide derivatives useful as MGAT-2 inhibitors” (Eli Lilly and Company, priority 2012, dated 2015).
Structures can show the parent of a compound that is named as a salt.

Legend:
TAG absorption = assay: Dog Oil Bolus Model (plasma TAG after olive oil bolus); assay type: in vivo; conditions: male beagles, olive oil 5 ml/kg
Protocol: Inhibiting MGAT-2 found in the small intestine may be useful for treating hypertriglyceridemia caused by excessive fat intake. To assess the ability of the exemplified compounds to inhibit TAG absorption, twenty one male beagles (n=7 per treatment group) are enrolled for each study each dog selected to have a body weight between 9-13 kg. House the dogs in cages with a standard light cycle (12 hours light and 12 hours dark); at room temperature: 72±8° F.; and at 30%-70% relative humidity. Fast the dogs for 16 hours prior to the start of the study, then dose the fasted dogs with vehicle (1% HEC, 0.25%, Tween 80, Antifoam) or one of the test compounds. Bleed the dogs one hour after dosing, (0.5 ml from the jugular vein) for a time 0 sample. Dose the dogs with olive oil (Sigma Catalog#: O-1514, 5 ml/kg) immediately after collection of the time 0 sample. Collect samples into an EDTA tube on ice at 1.5, 2, 3, 5, 7, and 9 hrs post compound/vehicle dosing. […]
The analyte is the [M+NH4]+ ion of TAG 18:1 18:1 18:1, which has a mass of 902.8 m/z; the internal standard is D5 TAG 16:0 16:0 16:0, which has a mass of 829.8 m/z. […] The percent inhibition of plasma triglyceride is calculated as follows: the (oil bolus group mean of net TAG AUC−oil bolus group mean of net TAG AUC with compound treatment/oil bolus group mean of net TAG AUC)*100. […]

human MGAT-2 [1] = biological target: T1, human MGAT-2 (Homo sapiens, UniProt Q3SYC2); assay: MGAT-2 Cell Assay (Caco-2 cells stably transfected with human MGAT-2, HDG substrate, LC-MS); assay type: cell-based; conditions: HDG/DOPC
T1 sequence (Q3SYC2 whole entry): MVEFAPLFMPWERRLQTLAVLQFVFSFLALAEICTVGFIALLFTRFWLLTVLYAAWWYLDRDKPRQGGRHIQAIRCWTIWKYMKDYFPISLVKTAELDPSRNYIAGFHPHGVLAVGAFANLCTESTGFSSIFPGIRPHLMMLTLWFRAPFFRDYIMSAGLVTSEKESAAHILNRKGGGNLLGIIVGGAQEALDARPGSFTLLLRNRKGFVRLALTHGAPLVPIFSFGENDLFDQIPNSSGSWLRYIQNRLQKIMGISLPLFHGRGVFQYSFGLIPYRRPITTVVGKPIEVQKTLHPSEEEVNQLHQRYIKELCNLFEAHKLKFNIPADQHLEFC
Protocol: The inhibitory activity of compounds against human MGAT-2 in a cell environment is evaluated in this assay. Caco-2 is a human colon carcinoma cell line and is often used as a model for intestinal epithelial cells. […] A MAG analogue, 2-O-Hexadecylglycerol (HDG), is utilized to detect cellular MGAT-2 activity, because HDG is not be hydrolyzed and the resulting product is readily monitored by mass spectrometry. The substrate is delivered to cells using phospholipid vesicles.
Seed the Caco2 cells onto 100 mm dishes to be 80% confluent after 24 hours in complete media (3/1 DMEM: F12+10% FBS+20 mM HEPES+gentamicin). Transfect the cells with hMGAT-2 plasmid (MGAT-2-pCDNA3.1-Hygro) using Lipofectamine 2000 (Invitrogen). After a 6 hour exposure to the transfection mixture, wash the cells 3× in PBS and then add media. Incubate the cells for an additional 18 hours incubation, trypsinize the cells and serially dilute them into 100 mm dishes. Added complete media+400 μg/ml hygromycin and incubate until clones appear. Isolate and transfer the clones into 24 well dishes and grow to confluency. Prepare the RNAs from these clones using a Qiagen RNAeasy kit. Perform Taqman analysis using an ABI inventoried assay (HS00228262) on a 7900 Sequence Detection System (ABI). Analyze the lysates from these clones western blot analysis using a goat polyclonal antibody (Santa Cruz, SC-32392 to confirm human MGAT-2 expression of a 38 Kdal protein corresponding to MGAT-2.
Mix 2-O-hexadecylglycerol (“HDG”, Biosynth Chemistry & Biology, # H-1806, 562.7 μl of 20 mg/ml) and DOPC (14.3 ml of 20 mg/ml) in a glass tube; dry first under N2 gas; and then under vacuum for additional 30 minutes. Add 20 ml of buffer (150 mM Tris-Cl pH 7.4, 250 mM Sucrose, 1 mM EDTA) to the dried HDG/DOPC mixture while sonicating until the solution becomes clear. Plate the Caco2 cells into a poly-D-lysine coated 96-well plate (the “Cell Plate”) at 37° C., 5% CO2 overnight. Remove the growth media and pretreat the cells with the test compound in DMEMF12 (3:1) media (GIBCO 93-0152DK) containing 2% BSA (Sigma) for 30 minutes. Treat the cells with one test compound in 2% BSA DMEMF12 (3:1) media containing 40 μM of oleic acid and 800 μM of 8.9% HDG/DOPC for 4 hours. Trypsinize the cells with 50 μl of trypsin and add 50 μl of PBS. Immediately freeze the cells on dry ice and store at −20° C. for LC-MS analysis. Extract the cells with chloroform/methanol as follows transfer the cells to a 2 ml Plate; wash the Cell Plate with 200 μL methanol and then transfer the methanol wash to the 2 ml Plate; wash the Cell Plate again with 200 μL PBS and transfer the PBS wash to the 2 ml Plate. Add chloroform (400 μL) with internal standard (19.52 ng/mL) DAG (15:0,15:0 (Sigma)), D5-TAG (39.03 ng/mL) CDN (16,16,16) to the 2 mL Plate. […]

human MGAT-2 [2] = biological target: T1, human MGAT-2; assay: MGAT-2 Inhibitory Assay (14C-oleoyl-CoA, Microscint E extraction, SF9 cell lysate); assay type: biochemical; parameters: made in house; host or cells: Insect SF9 cells (supernatant of homogenate, unpurified); conditions: human MGAT-2 expressed in SF9 cells, 90 minutes, room temperature; read-out: IC50 in MGAT-2 in vitro assay
Protocol: The in vitro inhibitory activity of compounds against human MGAT-2 is evaluated in this assay. MGAT-2 transfers an oleoyl group to monooleoyl-glycerol (“MAG”) from oleoyl-CoA to form dioleoyl-glycerol (“DAG”) in the intestinal triglyceride resynthesis pathway. The assay takes advantage of Microscint E extraction, which extracts hydrophobic molecules selectively over hydrophilic ones to separate the ^14C-oleoyl-CoA from ^14C-DAG.
Insect SF9 cells express human MGAT-2. Prepare the cell lysate in 20 mM of NaCl with protease inhibitor (Roche Cat#11873580001). Homogenize the SF9 cells expressing human MGAT-2 at 15,000 rpm for 20×2 seconds (PT-3100 Polytrone). Centrifuge the homogenate at 1000 g for 10 minutes at 4° C. Collect the supernatant into a separate tube for protein quantification and activity testing. Purify the glycerol monooleate substrate (Spectrum Chemical, CAS#25496-72-4) chromatographically. Prepare the monoacylglyerol (MAG) substrate in phospholipid vescicles (dioleoyl phosphatidylcholine “DOPC”). Prepare the MAG/DOPC vesicles at 20 mM concentration of total lipids (MAG and DOPC). Prepare different molar ratios of MAG to total lipids for either compound screening (8.9%) or compound kinetic studies (2.6-40%). Mix the appropriate amount of purified MAG and DOPC (Avanti Polar Lipids #850375C) in a glass tube under N2 gas and then dry under vacuum for 30 minutes. […]

[3] = Caco-2 cells expressing human MGAT-2, 4 hours, read-out: Basal Triglyceride Caco 2 Relative IC50

Row | Structure (SMILES) | inhibition of TAG absorption (percent inhibition of net plasma TAG AUC) (TAG absorption; dosed at 10 mg/kg) | inhibition of TAG absorption (TAG absorption; dosed at 30 mg/kg) | IC50 (human MGAT-2 [1]; Basal Triglyceride Caco 2 Relative IC50, Caco-2 cells expressing human MGAT-2, 4 hours) | IC50 (human MGAT-2 [2]) | IC50 (human MGAT-2 [1]; [3])
1 | CC(C)(C)C1CCN(Cc2ccc([C@H](NS(C)(=O)=O)C(F)(F)F)cc2)CC1.Cl [Example 1, N-[(1S)-1-[4-[(4-tert-Butylpiperidin-1-yl)methyl]phenyl]-2,2,2-trifluoro-ethyl]methanesulfonamide hydrochloride] | 69% | completely inhibited | 58.2 nM | < 12 nM | 
2 | CC(C)(C)C1CCN(Cc2ccc([C@H](NS(C)(=O)=O)C(F)(F)F)cc2)CC1 [Example 2, N-[(1S)-1-{4-[(4-tert-butylpiperidin-1-yl)methyl]phenyl}-2,2,2-trifluoroethyl]methanesulfonamide phosphoric acid] |  |  |  |  | 102 nM
3 | CS(=O)(=O)N[C@@H](c1ccc(CN2CCC(c3ccc(F)cc3)CC2)cc1)C(F)(F)F [Example 4, N-[(1S)-2,2,2-trifluoro-1-(4-{[4-(4-fluorophenyl)piperidin-1-yl]methyl}phenyl)ethyl]methanesulfonamide hydrochloride] |  |  |  |  | 17.7 nM
4 | C[C@@H](NS(C)(=O)=O)c1ccc(CN2CCC(c3ccc(F)cc3)CC2)cc1 [Example 5, N-[(1R)-1-(4-{[4-(4-fluorophenyl)piperidin-1-yl]methyl}phenyl)ethyl]methanesulfonamide hydrochloride] |  |  |  |  | 64.2 nM
